Assay results taken from US8754259B2, “Synthesis of cyclohexane derivatives useful as sensates in consumer products” (The Proctor & Gamble Company, priority 2008, dated 2014).

Experiments:
[1] = Sensory studies of coolant activity (G-180 and neoisomer vs menthol); assay type: in vivo, human; settings: for burning sensation: sensory evaluations by panelists
Protocol: The coolant properties of the materials prepared according to the present methods are evaluated using sensory studies. […] By contrast, both the G-180 and neoisomer materials provided a sensation that lasted longer than about 15 minutes. The cooling potency of the neoisomer is particularly unexpected, since stereochemistry is a major factor influencing coolant activity and potency for menthol and menthol derivatives as reported in previous studies. [See for example, R. Emberger and R. Hopp (1987), Specialty Chemicals, 7(3), 193-201; R. Eccles (1990), Chemical Senses, 2, 275-291; S. Rovner (2007), Chemical & Engineering News, 85(39), 95-98]. […] The effect on activity of these isomers is far more significant than is observed with menthol.
Sensory evaluation studies of coolant activity may be conducted using a methodology patterned after the techniques described in M. C. Meilgaard, et al., Sensory Evaluation Techniques, 4th Ed. (2007). A panel of trained sensory experts evaluates cooling sensation experienced after using a product with coolant, for example by brushing with a dentifrice or rinsing with an aqueous rinse. In one protocol, panelists brush teeth with 1.5 grams of a test dentifrice (containing coolant) or control (no coolant) and then expectorate. After brush expectoration, panelists evaluate cooling intensity, assigning a number between 0 (no cooling) to 60 (intense cooling). In a rinse protocol, panelists rinse mouth with 15 ml. of an aqueous rinse and expectorate. After rinse expectoration, panelists evaluate cooling intensity according to the same 0 to 60 scale. Evaluations are conducted various time points, for example, at 5, 15, 30, 45, 60 minute, etc. At each evaluation, panelists are instructed to breathe in through pursed lips and evaluate overall cooling sensation. In this test, a numerical score of 7.5 indicates meaningful or definite cooling.

[2] = concentration where the cooling effect could be clearly recognized; cited from earlier work
[3] = Cooling rating of test dentifrices relative to control dentifrice, panelists n=9; assay type: in vivo, human; settings: for Cooling Rating Relative to Control: control = 60 on 1-90 scale; for cooling power compared to l-menthyl lactate: in words, dentifrice panel test, 60 minute period
Protocol: The neo-coolants synthesized according to the routes outlined herein were tested to rate their cooling power compared with the corresponding l-isomers (commercially available samples) using the following protocol. Control and test coolants were formulated into a dentifrice at various levels according to the following formula.
Panelists (n=9) were instructed to brush for 30 seconds with a control dentifrice (containing a mixture of coolants 1500 ppm l-WS-3, 3000 ppm Menthol, 3000 ppm MGA and 1000 ppm WS-23), expectorate, and assign the control dentifrice a cooling rating of 60 on a 1-90 scale. The panelists were then given the test dentifrices in random order and instructed to brush and rate each sample relative to the control over a 60-minute period. Cooling ratings relative to control are summarized below.

[4] = 0 min, 500 ppm coolant in dentifrice
[5] = 15 min, 500 ppm coolant in dentifrice
[6] = 30 min, 500 ppm coolant in dentifrice
[7] = 45 min, 500 ppm coolant in dentifrice
[8] = 60 min, 500 ppm coolant in dentifrice
[9] = 0 min, 1500 ppm coolant in dentifrice
[10] = 15 min, 1500 ppm coolant in dentifrice
[11] = 30 min, 1500 ppm coolant in dentifrice
[12] = 45 min, 1500 ppm coolant in dentifrice
[13] = 60 min, 1500 ppm coolant in dentifrice

## CC(C)[C@@H]1CC[C@@H](C)C[C@H]1C(=O)Nc1ccc(CC#N)cc1 [G-180, N-[4-(cyanomethyl)phenyl]-(1R,2S,5R)-2-isopropyl-5-methylcyclohexanecarboxamide, reference compound]
[1]
  burning sensation: “burning” sensation especially when used at fairly high levels

## CC(C)[C@@H]1CC[C@@H](C)C[C@H]1O [L-menthol, l-menthol, reference compound]
[1]; sensory studies
  course of cooling sensation after use: drops sharply within a few minutes after use
[2]
  cooling threshold: about 800 ppb

## CC(C)[C@@H]1CC[C@@H](C)C[C@@H]1C(=O)Nc1ccc(CC#N)cc1 [Neo-G-180, N-[4-(cyanomethyl)phenyl]-(1S,2S,5R)-2-isopropyl-5-methylcyclohexanecarboxamide]
[1]; in vivo
  cooling properties: excellent cooling properties
[1]
  burning sensation: significantly less of the “burning” sensation
other
  melting point: 167 to 169 °C

## CC1CCC(C(C)C)C(OC(=O)C(C)O)C1 [Neo-Menthyl lactate (2S)]
[3]; [4]
  Cooling Rating Relative to Control: 62.2
[3]; [5]
  Cooling Rating Relative to Control: 43.9
[3]; [6]
  Cooling Rating Relative to Control: 33.9
[3]; [7]
  Cooling Rating Relative to Control: 27.5
[3]; [8]
  Cooling Rating Relative to Control: 16.7
[3]
  cooling power compared to l-menthyl lactate: very strong initial cooling as well as over the 60 minute time period

## CC(=O)O[C@@H](C)C(=O)O[C@H]1C[C@H](C)CC[C@H]1C(C)C [Neo-Menthyl lactate acetate (2S), (1S,2S,5R)-2-isopropyl-5-methylcyclohexyl-2(S)-acetoxypropanoate]
[3]; 0 min, 335 ppm coolant in dentifrice
  Cooling Rating Relative to Control: 64.4
[3]; 15 min, 335 ppm coolant in dentifrice
  Cooling Rating Relative to Control: 46.3
[3]; 30 min, 335 ppm coolant in dentifrice
  Cooling Rating Relative to Control: 33.1
[3]; 45 min, 335 ppm coolant in dentifrice
  Cooling Rating Relative to Control: 26.3
[3]; 60 min, 335 ppm coolant in dentifrice
  Cooling Rating Relative to Control: 21.3
[3]
  cooling power compared to l-menthyl lactate: very strong initial cooling as well as over the 60 minute time period

## CC(=O)C(=O)OC1CC(C)CCC1C(C)C (stereo not shown) [Neo-Menthyl pyruvate]
[3]; 0 min, 1000 ppm coolant in dentifrice
  Cooling Rating Relative to Control: 57.8
[3]; 15 min, 1000 ppm coolant in dentifrice
  Cooling Rating Relative to Control: 45.0
[3]; 30 min, 1000 ppm coolant in dentifrice
  Cooling Rating Relative to Control: 30.6
[3]; 45 min, 1000 ppm coolant in dentifrice
  Cooling Rating Relative to Control: 21.1
[3]; 60 min, 1000 ppm coolant in dentifrice
  Cooling Rating Relative to Control: 16.1

## CCNC(=O)[C@H]1C[C@H](C)CC[C@H]1C(C)C [Neo-WS-3]
[3]; [9]
  Cooling Rating Relative to Control: 43.3
[3]; [10]
  Cooling Rating Relative to Control: 33.9
[3]; [11]
  Cooling Rating Relative to Control: 23.3
[3]; [12]
  Cooling Rating Relative to Control: 16.7
[3]; [13]
  Cooling Rating Relative to Control: 13.3

## CCOC(=O)CNC(=O)[C@H]1C[C@H](C)CC[C@H]1C(C)C [NeoWS-5]
[3]; [9]
  Cooling Rating Relative to Control: 61.9
[3]; [10]
  Cooling Rating Relative to Control: 39.3
[3]; [11]
  Cooling Rating Relative to Control: 29.3
[3]; [12]
  Cooling Rating Relative to Control: 21.4
[3]; [13]
  Cooling Rating Relative to Control: 15.7

## CC(C)[C@@H]1CC[C@@H](C)C[C@@H]1O [d-neomenthol]
[2]
  cooling threshold: about 25,000 ppb

## CC(C)[C@@H]1CC[C@@H](C)C[C@H]1OC(=O)[C@H](C)O [l-Menthyl lactate (2S), reference compound]
[3]; [4]
  Cooling Rating Relative to Control: 50.0
[3]; [5]
  Cooling Rating Relative to Control: 38.0
[3]; [6]
  Cooling Rating Relative to Control: 26.5
[3]; [7]
  Cooling Rating Relative to Control: 18.5
[3]; [8]
  Cooling Rating Relative to Control: 13.5

## CCNC(=O)C1CC(C)CCC1C(C)C (stereo not drawn) [l-WS-3, N-ethyl-ρ-menthan-3-carboxamide, reference compound]
[3]; [9]
  Cooling Rating Relative to Control: 53.5
[3]; [10]
  Cooling Rating Relative to Control: 36.5
[3]; [11]
  Cooling Rating Relative to Control: 27.0
[3]; [12]
  Cooling Rating Relative to Control: 20.5
[3]; [13]
  Cooling Rating Relative to Control: 15.5

## CCOC(=O)CNC(=O)C1CC(C)CCC1C(C)C (stereo not drawn) [l-WS-5, N-ethoxycarbonylmethyl-ρ-menthan-3-carboxamide, reference compound]
[3]; [9]
  Cooling Rating Relative to Control: 53.9
[3]; [10]
  Cooling Rating Relative to Control: 40.0
[3]; [11]
  Cooling Rating Relative to Control: 26.7
[3]; [12]
  Cooling Rating Relative to Control: 17.8
[3]; [13]
  Cooling Rating Relative to Control: 13.3

## CC(C)[C@H]1CC[C@H](C)C[C@H]1O [l-neomenthol]
[2]
  cooling threshold: about 3,000 ppb

## Neo-Menthyl lactate [Neo-Menthyl lactate (~2:1 S:R)]
[3]; 0 min, 1950 ppm coolant in dentifrice
  Cooling Rating Relative to Control: 50.6
[3]; 15 min, 1950 ppm coolant in dentifrice
  Cooling Rating Relative to Control: 42.8
[3]; 30 min, 1950 ppm coolant in dentifrice
  Cooling Rating Relative to Control: 30.6
[3]; 45 min, 1950 ppm coolant in dentifrice
  Cooling Rating Relative to Control: 22.2
[3]; 60 min, 1950 ppm coolant in dentifrice
  Cooling Rating Relative to Control: 16.7
